This is an account of results in patent publication US20060122194A1, “Tablet comprising efletirizine and pseudoephedrine” (UCB Farchim S.A., priority 2002, published 2006).

Each structure is given as a SMILES string.

The nature of data set [1]: stability of the tablet / of efletirizine with pseudoephedrine. As to conditions: efletirizine and pseudoephedrine formulated together in the same segment. The class given is physicochemical.
Data set [2] has as its target histamine H1-receptor (Homo sapiens, UniProt P35367). The following applies: in vitro; cited from earlier work.

Sequence of histamine H1-receptor (P35367 whole entry, species assumed): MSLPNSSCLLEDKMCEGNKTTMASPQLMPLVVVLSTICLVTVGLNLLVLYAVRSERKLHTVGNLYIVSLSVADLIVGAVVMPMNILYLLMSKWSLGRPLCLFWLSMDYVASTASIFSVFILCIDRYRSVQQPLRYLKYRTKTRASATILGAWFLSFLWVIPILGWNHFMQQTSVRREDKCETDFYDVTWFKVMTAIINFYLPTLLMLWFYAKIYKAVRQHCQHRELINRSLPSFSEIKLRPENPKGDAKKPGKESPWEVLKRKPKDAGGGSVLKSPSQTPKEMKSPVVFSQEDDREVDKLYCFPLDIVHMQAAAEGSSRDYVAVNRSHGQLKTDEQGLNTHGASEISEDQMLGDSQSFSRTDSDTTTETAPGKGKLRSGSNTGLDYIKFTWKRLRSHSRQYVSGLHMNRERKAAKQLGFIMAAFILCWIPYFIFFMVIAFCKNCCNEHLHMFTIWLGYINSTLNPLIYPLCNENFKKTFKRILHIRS

With `O=C(O)COCCN1CCN(C(c2ccc(F)cc2)c2ccc(F)cc2)CC1` [Efletirizine, 2-{2-[4-[bis(4-fluorophenyl)methyl)-1-piperazinyl]ethoxy}acetic acid], in data set [1], the degradation of efletirizine entry was “a degradation of efletirizine appeared”. The “affinity and selectivity for H1-receptors” value in data set [2] is “high affinity and selectivity”.
